Reference: the NIST ThermoML archive (doi:10.1016/j.jct.2007.01.017)

Columns and labels:
[1] = excess molar enthalpy (molar enthalpy of mixing); xn = mol fraction of the nth substance listed; conditions: 101 kPa, Liquid, Flow calorimetry
[2] = Liquid; for mass density: 298.15 K, 101.33 kPa; for vapor or sublimation pressure: 313.15 K

CCCCCCCl [1-chlorohexane] + CC(=O)N(C)C
excess molar enthalpy [kcal/mol], [1]
Conditions	298.15 K	308.15 K
x2 = 0.059	–	0.0253
x2 = 0.064	0.0251	–
x2 = 0.108	–	0.0488
x2 = 0.113	0.0476	–
x2 = 0.206	–	0.0935
x2 = 0.211	0.0908	–
x2 = 0.304	–	0.124
x2 = 0.309	0.119	–
x2 = 0.402	–	0.144
x2 = 0.407	0.137	–
x2 = 0.501	–	0.153
x2 = 0.505	0.1458	–
x2 = 0.6	–	0.151
x2 = 0.603	0.143	–
x2 = 0.698	–	0.136
x2 = 0.701	0.129	–
x2 = 0.798	0.102	0.108
x2 = 0.896	0.0588	–
x2 = 0.897	–	0.0626
x2 = 0.945	0.0315	–
x2 = 0.947	–	0.0335
x2 = 0.967	–	0.0201

CCCCCCCCCl [1-chlorooctane] + CC(=O)N(C)C
[1]
Conditions	excess molar enthalpy [kcal/mol]
298.15 K, x2 = 0.067	0.0325
298.15 K, x2 = 0.117	0.0652
298.15 K, x2 = 0.215	0.124
298.15 K, x2 = 0.313	0.162
298.15 K, x2 = 0.411	0.186
298.15 K, x2 = 0.508	0.1981
298.15 K, x2 = 0.606	0.1962
298.15 K, x2 = 0.703	0.179
298.15 K, x2 = 0.8	0.146
298.15 K, x2 = 0.897	0.0884
298.15 K, x2 = 0.945	0.0483
308.15 K, x2 = 0.061	0.0323
308.15 K, x2 = 0.11	0.0655
308.15 K, x2 = 0.207	0.127
308.15 K, x2 = 0.305	0.168
308.15 K, x2 = 0.403	0.1953
308.15 K, x2 = 0.501	0.2089
308.15 K, x2 = 0.6	0.2082
308.15 K, x2 = 0.699	0.1912
308.15 K, x2 = 0.798	0.156
308.15 K, x2 = 0.898	0.0946
308.15 K, x2 = 0.948	0.0516
308.15 K, x2 = 0.968	0.0301

CCCCCl [1-chlorobutane] + CN(C)C=O
excess molar enthalpy [kcal/mol], [1]
Conditions	298.15 K	308.15 K
x2 = 0.056	0.0294	–
x2 = 0.058	–	0.028
x2 = 0.106	0.0571	–
x2 = 0.108	–	0.0552
x2 = 0.207	0.0966	0.0956
x2 = 0.306	–	0.121
x2 = 0.308	0.122	–
x2 = 0.404	–	0.136
x2 = 0.407	0.135	–
x2 = 0.503	–	0.139
x2 = 0.507	0.136	–
x2 = 0.602	–	0.132
x2 = 0.606	0.129	–
x2 = 0.701	–	0.115
x2 = 0.705	0.112	–
x2 = 0.799	–	0.087
x2 = 0.803	0.0841	–
x2 = 0.898	–	0.048
x2 = 0.901	0.0459	–
x2 = 0.947	–	0.0246
x2 = 0.95	0.0234	–
x2 = 0.967	–	0.0146

CCCCCCCl [1-chlorohexane] + CN(C)C=O
[1]
Conditions	excess molar enthalpy [kcal/mol]
298.15 K, x2 = 0.058	0.0385
298.15 K, x2 = 0.107	0.0731
298.15 K, x2 = 0.205	0.13
298.15 K, x2 = 0.303	0.166
298.15 K, x2 = 0.402	0.1917
298.15 K, x2 = 0.5	0.2024
298.15 K, x2 = 0.598	0.1965
298.15 K, x2 = 0.697	0.177
298.15 K, x2 = 0.796	0.139
298.15 K, x2 = 0.894	0.0803
298.15 K, x2 = 0.944	0.0418
308.15 K, x2 = 0.062	0.0344
308.15 K, x2 = 0.111	0.0755
308.15 K, x2 = 0.208	0.133
308.15 K, x2 = 0.305	0.172
308.15 K, x2 = 0.403	0.1974
308.15 K, x2 = 0.501	0.2079
308.15 K, x2 = 0.6	0.2027
308.15 K, x2 = 0.699	0.182
308.15 K, x2 = 0.798	0.143
308.15 K, x2 = 0.897	0.0834
308.15 K, x2 = 0.947	0.0437
308.15 K, x2 = 0.967	0.0258

CCCCCCCCCl [1-chlorooctane] + CN(C)C=O
[1]
Conditions	excess molar enthalpy [kcal/mol]
298.15 K, x2 = 0.064	0.0416
298.15 K, x2 = 0.113	0.0863
298.15 K, x2 = 0.21	0.163
298.15 K, x2 = 0.308	0.212
298.15 K, x2 = 0.405	0.2459
298.15 K, x2 = 0.502	0.2598
298.15 K, x2 = 0.6	0.256
298.15 K, x2 = 0.698	0.2337
298.15 K, x2 = 0.795	0.189
298.15 K, x2 = 0.893	0.117
298.15 K, x2 = 0.942	0.0633
308.15 K, x2 = 0.069	0.0509
308.15 K, x2 = 0.117	0.092
308.15 K, x2 = 0.212	0.162
308.15 K, x2 = 0.309	0.2192
308.15 K, x2 = 0.406	0.2543
308.15 K, x2 = 0.503	0.2696
308.15 K, x2 = 0.601	0.2665
308.15 K, x2 = 0.699	0.2433
308.15 K, x2 = 0.798	0.198
308.15 K, x2 = 0.898	0.12
308.15 K, x2 = 0.948	0.0669
308.15 K, x2 = 0.968	0.0399

CCCCCCCCCl [1-chlorooctane]
Conditions	mass density [kg/m3]
[2]	868.98

CCCCCCCl [1-chlorohexane]
[2]
Conditions	mass density [kg/m3]	vapor or sublimation pressure [kPa]
–	873.21	2.857

CCCCCl [1-chlorobutane] + CC(=O)N(C)C
[1]
Conditions	excess molar enthalpy [kcal/mol]
298.15 K, x2 = 0.06	0.0163
298.15 K, x2 = 0.111	0.0337
298.15 K, x2 = 0.212	0.0583
298.15 K, x2 = 0.312	0.0748
298.15 K, x2 = 0.412	0.0846
298.15 K, x2 = 0.511	0.0868
298.15 K, x2 = 0.61	0.0832
298.15 K, x2 = 0.708	0.0729
298.15 K, x2 = 0.805	0.0559
298.15 K, x2 = 0.902	0.0311
298.15 K, x2 = 0.95	0.0165
308.15 K, x2 = 0.057	0.0163
308.15 K, x2 = 0.106	0.0335
308.15 K, x2 = 0.206	0.0588
308.15 K, x2 = 0.305	0.076
308.15 K, x2 = 0.404	0.0865
308.15 K, x2 = 0.503	0.0896
308.15 K, x2 = 0.602	0.0863
308.15 K, x2 = 0.7	0.0758
308.15 K, x2 = 0.799	0.0581
308.15 K, x2 = 0.897	0.0332
308.15 K, x2 = 0.946	0.0172
308.15 K, x2 = 0.966	0.0098

CCCCCl [1-chlorobutane]
[2]
Conditions	mass density [kg/m3]	vapor or sublimation pressure [kPa]
–	880.72	25.72

CN(C)C=O [dimethylformamide]
Conditions	mass density [kg/m3]
[2]	943.81

CC(=O)N(C)C [N,N-dimethylethanamide]
Conditions	mass density [kg/m3]
[2]	936.34
